Reference: US20230011269A1, “PHARMACEUTICAL COMPOSITION COMPRISING A POTENT INHIBITOR OF URAT1” (Ardea Biosciences, Inc., priority 2015, published 2023)

What was measured:
[1] = Phase 1 study of MR formulations MR1-5: plasma pharmacokinetics; type: in vivo; settings: male, human, oral, 5 mg, MR1-MR5 formulations, fasted and fed (Table 9), read-out: average terminal half-life
Method: A Phase 1, randomized study to evaluated the PK, PD, and safety and tolerability of 2-((3-(4-cyanonaphthalen-1-yl)pyridine-4-yl)thio)-2-methylpropanoic acid MR formulations in n=12 healthy adult male subjects in fasted and fed states. This study evaluated a total of 5 MR formulations at a 5 mg dose. The MR formulations tested are those described in Examples 2-6. Plasma samples for PK analysis were collected at the following time points: Pre-dose (within 30 minutes before dosing) and at 0.25, 0.5, 0.75, 1, 1.5, 2, 2.5, 3, 4, 5, 6, 8, 10, 12, 24, 30, 36, 48, 54, 60 and 72 hours post-dose. A summary of the mean plasma pharmacokinetic parameters following administration of the MR compositions of 2-((3-(4-cyanonaphthalen-1-yl)pyridine-4-yl)thio)-2-methylpropanoic acid are provided in Table 9.

[2] = Phase 1 crossover study MR4 4 x 2.5 mg vs 10 mg tablet, food effect: plasma pharmacokinetics; settings: male, human, in vivo
Method: A Phase 1, randomized, open label, 4 way crossover PK and PD study in healthy adult male subjects designed to assess the relative bioavailability of 2-((3-(4-cyanonaphthalen-1-yl)pyridine-4-yl)thio)-2-methylpropanoic acid 2.5 mg MR tablets administered as a 10 mg dose (4×2.5 mg tablets) and a single 2-((3-(4-cyanonaphthalen-1-yl)pyridine-4-yl)thio)-2-methylpropanoic acid 10 mg MR tablet. The 10 mg MR tablet was prepared as described in Example 5a. This study also assessed the effect of a low fat and high fat meal on the PK and PD of 2-((3-(4-cyanonaphthalen-1-yl)pyridine-4-yl)thio)-2-methylpropanoic acid 10 mg MR tablets. Sixteen subjects were randomized to 1 of 4 treatment sequences. The treatments administered on Days 1 or 5 according to the randomization schedule were as follows: • Treatment A: 10 mg dose of 2-((3-(4-cyanonaphthalen-1-yl)pyridine-4-yl)thio)-2-methylpropanoic acid, administered as 4×2.5 mg ER tablets, in the fasted state. • Treatment B: 10 mg dose of 2-((3-(4-cyanonaphthalen-1-yl)pyridine-4-yl)thio)-2-methylpropanoic acid, administered as a single 10 mg ER tablet, in the fasted state. […]

CC(C)(Sc1ccncc1-c1ccc(C#N)c2ccccc12)C(=O)O [2-((3-(4-cyanonaphthalen-1-yl)pyridine-4-yl)thio)-2-methylpropanoic acid]
half-life [1]: 10 to 28 h
decrease of AUC∞ by a low-fat meal compared with the fasted state [2]: ~17%
decrease of Cmax by a low-fat meal compared with the fasted state [2]: approximately 21%
